According to the supplement of paper PMC10627819:

What was measured:
[1] = system: S. aureus Newman; test: fitness (endpoint OD595 vs no drug) (fraction); higher = more growth; settings: one replicate
Summary of the method: (§1)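 Background-subtracted growth curves were the basis for fitness, taken as the optical density at entry into stationary phase over the robust mean of no-drug control wells. A cap of 1 was applied. The curves came from OD595 readings every 30 min for 14 h at 37 °C, in 384-well plates seeded at OD595 0.01 with 30 µl, or 55 µl for S. pneumoniae.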

[2] = system: S. pneumoniae D39V; test: as above
Summary of the method: as §1

[3] = system: S. aureus DSM 20231; test: Bliss interaction score (quartile over a dose matrix) (fitness difference); higher = more antagonism (negative = synergy)
Summary of the method: (§2)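 The Bliss score is observed fitness minus expected fitness, where the expected value is the product of single-drug fitness values inferred from combination data. Fitness is OD595 at entry into stationary phase normalised to the plate's robust no-drug mean and capped at 1. Scores are reported as quartiles spanning technical, biological and donor/recipient replicates.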

[4] = system: S. aureus Newman; test: as above
Summary of the method: as §2

[5] = system: S. pneumoniae D39V; test: as above
Summary of the method: as §2

[6] = system: B. subtilis 168; test: as above
Summary of the method: as §2
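Wherever Bliss interaction score (quartile over a dose matrix) is given: first quartile when negative (synergy) and third quartile when positive (antagonism).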

C/C(=C\C(=O)OCCCCCCCCC(=O)O)C[C@@H]1OC[C@H](C[C@@H]2O[C@H]2[C@@H](C)[C@H](C)O)[C@@H](O)[C@H]1O [Pseudomonic acid] + CN[C@@H]1[C@H](O[C@H]2[C@H](O[C@H]3[C@H](O)[C@@H](O)[C@H](N=C(N)N)[C@@H](O)[C@@H]3N=C(N)N)O[C@@H](C)[C@]2(O)C=O)O[C@@H](CO)[C@H](O)[C@H]1O [Streptomycin]
fitness
Settings	first compound 0.03 µg/mL	first compound 0.0313 µg/mL	first compound 0.06 µg/mL	first compound 0.0625 µg/mL	first compound 0.12 µg/mL	first compound 0.125 µg/mL
[1], partner 2 µg/mL	–	0.0148	–	0.0368	–	0.0312
[1], partner 4 µg/mL	–	0.0183	–	0.0224	–	0.0173
[1], partner 8 µg/mL	–	0.0145	–	0.0198	–	0.0269
[2], partner 2 µg/mL	0.897	–	0.719	–	0.52	–
[2], partner 4 µg/mL	0.903	–	0.708	–	0.491	–
[2], partner 8 µg/mL	0.699	–	0.565	–	0.384	–

[2], partner 16 µg/mL, one replicate
Settings	fitness
first compound 0.03 µg/mL	0.545
first compound 0.06 µg/mL	0.439
first compound 0.12 µg/mL	0.238

Settings	Bliss interaction score
[3]	-0.013
[4]	-0.0275
[5]	-0.178
[6]	0.0523

C/C(=C\C(=O)OCCCCCCCCC(=O)O)C[C@@H]1OC[C@H](C[C@@H]2O[C@H]2[C@@H](C)[C@H](C)O)[C@@H](O)[C@H]1O [Pseudomonic acid] + CN[C@H](CC(C)C)C(=O)N[C@H]1C(=O)N[C@@H](CC(N)=O)C(=O)N[C@H]2C(=O)N[C@H]3C(=O)N[C@H](C(=O)N[C@H](C(=O)O)c4cc(O)cc(O)c4-c4cc3ccc4O)[C@H](O)c3ccc(c(Cl)c3)Oc3cc2cc(c3O[C@@H]2O[C@H](CO)[C@@H](O)[C@H](O)[C@H]2O[C@H]2C[C@](C)(N)[C@H](O)[C@H](C)O2)Oc2ccc(cc2Cl)[C@H]1O [Vancomycin]
Settings	fitness
[1], first compound 0.0313 µg/mL, partner 0.1875 µg/mL	0.0232
[1], first compound 0.0313 µg/mL, partner 0.375 µg/mL	0.0206
[1], first compound 0.0313 µg/mL, partner 0.75 µg/mL	0.0349
[1], first compound 0.0625 µg/mL, partner 0.1875 µg/mL	0.0221
[1], first compound 0.0625 µg/mL, partner 0.375 µg/mL	0.0409
[1], first compound 0.0625 µg/mL, partner 0.75 µg/mL	0.053
[1], first compound 0.125 µg/mL, partner 0.1875 µg/mL	0.0473
[1], first compound 0.125 µg/mL, partner 0.375 µg/mL	0.0505
[1], first compound 0.125 µg/mL, partner 0.75 µg/mL	0.0388
[2], first compound 0.03 µg/mL, partner 0.03125 µg/mL	0.983
[2], first compound 0.03 µg/mL, partner 0.0625 µg/mL	0.973
[2], first compound 0.03 µg/mL, partner 0.125 µg/mL	0.9
[2], first compound 0.06 µg/mL, partner 0.03125 µg/mL	0.873
[2], first compound 0.06 µg/mL, partner 0.0625 µg/mL	0.865
[2], first compound 0.06 µg/mL, partner 0.5 µg/mL	0.259
[2], first compound 0.12 µg/mL, partner 0.03125 µg/mL	0.641
[2], first compound 0.12 µg/mL, partner 0.0625 µg/mL	0.611
[2], first compound 0.12 µg/mL, partner 0.5 µg/mL	0.21

Settings	Bliss interaction score
[3]	-0.0086
[4]	-0.0276
[5]	0.137
[6]	0.0278

C/C(=C\C(=O)OCCCCCCCCC(=O)O)C[C@@H]1OC[C@H](C[C@@H]2O[C@H]2[C@@H](C)[C@H](C)O)[C@@H](O)[C@H]1O [Pseudomonic acid] + COc1ccc(C[C@H](N)C(=O)N[C@H]2[C@@H](O)[C@H](n3cnc4c(N(C)C)ncnc43)O[C@@H]2CO)cc1 [Puromycin]
fitness
Settings	first compound 0.03 µg/mL	first compound 0.0313 µg/mL	first compound 0.06 µg/mL	first compound 0.0625 µg/mL	first compound 0.12 µg/mL	first compound 0.125 µg/mL
[1], partner 0.39 µg/mL	–	0.0558	–	0.0476	–	0.0585
[1], partner 0.78 µg/mL	–	0.0593	–	0.043	–	0.0499
[1], partner 1.56 µg/mL	–	0.054	–	0.0656	–	0.0613
[2], partner 1 µg/mL	0.901	–	0.774	–	0.556	–
[2], partner 2 µg/mL	0.896	–	0.73	–	0.428	–
[2], partner 4 µg/mL	0.735	–	0.491	–	0.246	–

Settings	Bliss interaction score
[3]	0.01
[4]	0.0128
[5]	-0.209
[6]	-0.0341

C/C(=C\C(=O)OCCCCCCCCC(=O)O)C[C@@H]1OC[C@H](C[C@@H]2O[C@H]2[C@@H](C)[C@H](C)O)[C@@H](O)[C@H]1O [Pseudomonic acid] + Cc1cc(NS(=O)(=O)c2ccc(N)cc2)no1 [Sulfamethoxazol]
fitness
Settings	partner 1 µg/mL	partner 2 µg/mL	partner 4 µg/mL
[1], first compound 0.0313 µg/mL	0.0339	0.0298	0.0109
[1], first compound 0.0625 µg/mL	0.0352	0.0242	0.0216
[1], first compound 0.125 µg/mL	0.0377	0.0254	0.0232
[2], first compound 0.03 µg/mL	0.907	0.896	0.877
[2], first compound 0.06 µg/mL	0.784	0.776	0.769
[2], first compound 0.12 µg/mL	–	–	0.579

Settings	Bliss interaction score
[3]	-0.0246
[4]	-0.0317
[5]	-0.0659
[6]	-0.0453

C/C(=C\C(=O)OCCCCCCCCC(=O)O)C[C@@H]1OC[C@H](C[C@@H]2O[C@H]2[C@@H](C)[C@H](C)O)[C@@H](O)[C@H]1O [Pseudomonic acid] + Cn1nnc(-c2ccc(-c3ccc(N4C[C@H](CO)OC4=O)cc3F)cn2)n1 [Tedizolid]
fitness
Settings	partner 0.03125 µg/mL	partner 0.0625 µg/mL	partner 0.125 µg/mL	partner 0.25 µg/mL	partner 0.5 µg/mL
[1], first compound 0.0313 µg/mL	–	0.0219	0.0244	0.0038	–
[1], first compound 0.0625 µg/mL	–	0.0311	0.0131	0.0239	–
[1], first compound 0.125 µg/mL	–	0.031	0.0219	0.018	–
[2], first compound 0.03 µg/mL	0.963	0.965	0.82	0.777	–
[2], first compound 0.06 µg/mL	0.881	0.9	0.759	0.767	0.516
[2], first compound 0.12 µg/mL	0.925	0.923	0.707	0.587	0.382

Settings	Bliss interaction score
[3]	0.0061
[4]	0.011
[5]	0.21
[6]	-0.0611
